Key:
FGFR2 V564F = FGFR2 V564F (Homo sapiens (Human), UniProt P21802, V564F); assay: HTRF kinase activity assay, FGFR2 V564F; type: biochemical
Protocol: Activity Experiment 8: Inhibition of FGFR Family Kinases' Activity by Prepared Compounds The compounds were assayed for activity IC50 against the FGFR family kinases. Related kinases were purchased from Carna and Signalchem. The activity assay method for the related kinases was established by homogeneous time-resolved fluorescence (HTRF), and the inhibitory activity of the compounds was determined. […] The kinases and compounds were pre-incubated for 10 min, and then ATP and substrate were added to start the reaction. All the enzyme-catalyzed reactions were carried out at 25° C. for 40 min. After the enzyme-catalyzed reactions were completed, 5 μL of TK antibody-cryptate and streptavidin-XL665 (the reaction concentration of streptavidin-XL665 was 62.5 nM) were added to the reaction mixtures, and the mixtures were incubated at 25° C. for another 60 min.

FGFR3 = FGFR3 (Homo sapiens (Human), UniProt P22607); assay: HTRF kinase activity assay, FGFR3; type: biochemical
Protocol: Activity Experiment 8: Inhibition of FGFR Family Kinases' Activity by Prepared Compounds The compounds were assayed for activity IC50 against the FGFR family kinases. Related kinases were purchased from Carna and Signalchem.
The activity assay method for the related kinases was established by homogeneous time-resolved fluorescence (HTRF), and the inhibitory activity of the compounds was determined. A 5 μL reaction mixture was prepared, comprising 1× enzymatic buffer (Cisbio, HTRF KinEASE™-TK), 5 mM MgCl2, 1 mM DTT, 1 μM TK substrate-biotin (Cisbio, HTRF KinEASE™-TK), corresponding concentrations of ATP and related kinases, and gradient concentrations of compounds.
The kinases and compounds were pre-incubated for 10 min, and then ATP and substrate were added to start the reaction. All the enzyme-catalyzed reactions were carried out at 25° C. for 40 min. After the enzyme-catalyzed reactions were completed, 5 μL of TK antibody-cryptate and streptavidin-XL665 (the reaction concentration of streptavidin-XL665 was 62.5 nM) were added to the reaction mixtures, and the mixtures were incubated at 25° C. for another 60 min.

[1] = Pharmacokinetic assay in rats; type: in vivo, rat; conditions: for CL / Vz / F / AUC(0-inf) / AUC(0-t) / Cmax / Tmax / clearance / half-life / Vd: SD male rats; for F: p.o. 5 mg/kg vs i.v. 1 mg/kg; for AUC(0-inf) / AUC(0-t) / Cmax / Tmax / clearance / half-life / Vd: rat, plasma; for Vd: read-out: Vz
RET wild type (RET WT) = RET wild type (RET WT) (Homo sapiens (Human), UniProt P07949); assay: HTRF kinase activity assay, RET wild type; type: biochemical; conditions: 1 μM ATP
[2] = Metabolic stability in human liver microsomes; conditions: human liver microsomes, NADPH, Table 3; for microsomal CLint at 1 µM: CLint (μL/min/mg); for half-life at 1 µM: T1/2 (min)
[3] = system: Ba/F3 KIF5B-RET-G810R cells; assay: Ba/F3 KIF5B-RET-G810R cell inhibition (CellTiter-Glo); type: cell-based; conditions: Mus musculus, BaF3, 72 h, maximum concentration 1000 nM
Protocol: Activity Experiment 3: Inhibition of Ba/F3 KIF5B-RET Cells by Prepared Compounds Ba/F3 KIF5B-RET, Ba/F3KIF5B-RET-V804M, Ba/F3 RET-M918T and Ba/F3 KIF5B-RET-G810R cells growing in log phase were harvested and counted using a […]. The cell viability was determined by the trypan blue exclusion method, and the cell viability was kept over 90%. The cell concentration was adjusted, and 90 μL of the cell suspension was added to a 96-well plate. The cells in the 96-well plate were incubated overnight at 37° C. with 5% CO2 and 95% humidity. Corresponding gradient concentrations of drug solutions (the maximum concentration was 1000 nM) were added to the 96-well plate inoculated with cells at 10 μL/well. Triplicate wells were set per drug concentration, and the final concentration of DMSO was 0.1%. The drug-treated cells in the 96-well plate were incubated for another 72 h at 37° C. with 5% CO2 and 95% humidity. After the drug treatment was completed, 100 μL of CellTiter-Glo reagent was added to each well. The cell plate was shaken on an orbital shaker for 5 min to lyse the cells and then let stand at room temperature for 20 min to stabilize the luminescence signals, and then the luminescence values were read. The data were analyzed using the GraphPad Prism 5.0 software. Dose-response curves were fit to the data using nonlinear S-curve regression, and IC50 was calculated from the curves.

KDR (VEGFR2) = KDR (VEGFR2) (Homo sapiens (Human), UniProt P35968); assay: HTRF kinase activity assay, KDR; type: biochemical; conditions: 20 μM ATP
hERG potassium channel = hERG potassium channel (Homo sapiens (Human), UniProt Q12809); assay: Inhibition of hERG potassium channel, whole-cell patch clamp in HEK293 cells; conditions: read-out: IC50 for inhibition of hERG potassium channel; HEK293 cells stably expressing hERG, patch clamp
hERG potassium channel, sequence (Q12809 whole entry): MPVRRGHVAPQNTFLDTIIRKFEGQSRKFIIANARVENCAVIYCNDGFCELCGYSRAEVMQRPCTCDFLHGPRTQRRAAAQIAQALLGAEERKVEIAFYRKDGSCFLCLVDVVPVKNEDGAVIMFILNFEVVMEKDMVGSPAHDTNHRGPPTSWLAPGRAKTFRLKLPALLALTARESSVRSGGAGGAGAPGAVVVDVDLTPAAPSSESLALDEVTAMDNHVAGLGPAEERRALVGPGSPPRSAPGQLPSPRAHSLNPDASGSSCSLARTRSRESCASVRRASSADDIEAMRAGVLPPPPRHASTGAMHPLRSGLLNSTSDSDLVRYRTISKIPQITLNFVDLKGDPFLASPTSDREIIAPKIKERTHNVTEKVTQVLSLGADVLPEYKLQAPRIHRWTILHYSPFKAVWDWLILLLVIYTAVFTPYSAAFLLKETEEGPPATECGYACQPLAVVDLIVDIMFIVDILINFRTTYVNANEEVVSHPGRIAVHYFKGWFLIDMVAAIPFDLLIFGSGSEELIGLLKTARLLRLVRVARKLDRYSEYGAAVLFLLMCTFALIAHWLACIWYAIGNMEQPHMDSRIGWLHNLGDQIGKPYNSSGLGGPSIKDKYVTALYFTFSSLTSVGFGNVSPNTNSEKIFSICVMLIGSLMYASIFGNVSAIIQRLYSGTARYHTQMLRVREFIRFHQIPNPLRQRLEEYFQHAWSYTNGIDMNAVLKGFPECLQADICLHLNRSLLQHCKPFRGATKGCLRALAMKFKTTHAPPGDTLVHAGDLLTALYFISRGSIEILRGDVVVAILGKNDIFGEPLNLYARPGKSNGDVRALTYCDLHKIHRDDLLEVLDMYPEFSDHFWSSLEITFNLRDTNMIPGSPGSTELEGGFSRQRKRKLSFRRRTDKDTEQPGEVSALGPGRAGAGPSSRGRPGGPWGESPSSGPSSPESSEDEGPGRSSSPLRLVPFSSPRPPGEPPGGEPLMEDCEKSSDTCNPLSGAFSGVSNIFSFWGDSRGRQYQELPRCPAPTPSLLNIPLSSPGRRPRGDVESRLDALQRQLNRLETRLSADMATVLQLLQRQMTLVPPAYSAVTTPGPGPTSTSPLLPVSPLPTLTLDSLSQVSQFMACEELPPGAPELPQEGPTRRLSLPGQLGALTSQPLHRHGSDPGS

FGFR2 V564F, sequence (P21802 22-821 V564F): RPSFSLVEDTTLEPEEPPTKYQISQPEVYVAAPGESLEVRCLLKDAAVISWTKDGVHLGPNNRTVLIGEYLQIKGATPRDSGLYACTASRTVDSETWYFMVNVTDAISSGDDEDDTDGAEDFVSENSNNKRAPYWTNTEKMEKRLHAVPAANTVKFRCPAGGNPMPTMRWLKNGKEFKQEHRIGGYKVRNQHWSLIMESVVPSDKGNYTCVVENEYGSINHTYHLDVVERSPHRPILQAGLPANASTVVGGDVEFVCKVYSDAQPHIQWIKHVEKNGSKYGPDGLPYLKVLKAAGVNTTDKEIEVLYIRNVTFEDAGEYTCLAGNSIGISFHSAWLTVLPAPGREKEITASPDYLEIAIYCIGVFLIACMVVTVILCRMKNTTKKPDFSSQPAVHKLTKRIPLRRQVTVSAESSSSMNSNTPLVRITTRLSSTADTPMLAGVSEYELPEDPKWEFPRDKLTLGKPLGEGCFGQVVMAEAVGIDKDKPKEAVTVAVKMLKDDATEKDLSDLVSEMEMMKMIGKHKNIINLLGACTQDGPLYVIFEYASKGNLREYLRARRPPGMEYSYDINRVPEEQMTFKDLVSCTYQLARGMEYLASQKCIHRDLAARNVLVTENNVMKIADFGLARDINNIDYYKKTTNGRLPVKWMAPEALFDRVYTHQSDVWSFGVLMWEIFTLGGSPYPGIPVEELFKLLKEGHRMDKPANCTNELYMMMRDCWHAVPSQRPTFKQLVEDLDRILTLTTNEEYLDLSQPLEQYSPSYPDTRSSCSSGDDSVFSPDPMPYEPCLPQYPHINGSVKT
FGFR3, sequence (P22607 23-806): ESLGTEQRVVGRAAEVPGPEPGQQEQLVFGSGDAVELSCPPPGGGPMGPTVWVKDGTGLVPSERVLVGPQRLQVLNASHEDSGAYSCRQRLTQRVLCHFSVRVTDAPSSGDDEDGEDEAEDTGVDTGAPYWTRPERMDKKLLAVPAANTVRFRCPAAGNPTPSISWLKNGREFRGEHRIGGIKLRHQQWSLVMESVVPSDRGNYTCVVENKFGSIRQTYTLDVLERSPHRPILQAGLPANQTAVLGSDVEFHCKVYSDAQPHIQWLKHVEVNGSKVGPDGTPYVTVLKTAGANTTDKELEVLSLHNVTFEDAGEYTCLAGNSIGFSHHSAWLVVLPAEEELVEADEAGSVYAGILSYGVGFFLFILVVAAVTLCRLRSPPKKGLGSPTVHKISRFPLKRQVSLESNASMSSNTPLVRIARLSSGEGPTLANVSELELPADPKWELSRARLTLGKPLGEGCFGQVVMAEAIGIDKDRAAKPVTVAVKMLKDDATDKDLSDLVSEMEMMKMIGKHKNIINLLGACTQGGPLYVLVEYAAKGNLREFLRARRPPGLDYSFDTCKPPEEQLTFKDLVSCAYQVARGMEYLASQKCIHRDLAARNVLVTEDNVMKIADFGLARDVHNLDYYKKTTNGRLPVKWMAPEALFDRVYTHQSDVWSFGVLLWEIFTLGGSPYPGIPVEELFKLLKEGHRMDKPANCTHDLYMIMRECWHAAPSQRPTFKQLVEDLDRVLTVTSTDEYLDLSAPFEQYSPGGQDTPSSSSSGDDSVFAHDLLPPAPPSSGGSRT
KDR (VEGFR2), sequence (P35968 20-1356): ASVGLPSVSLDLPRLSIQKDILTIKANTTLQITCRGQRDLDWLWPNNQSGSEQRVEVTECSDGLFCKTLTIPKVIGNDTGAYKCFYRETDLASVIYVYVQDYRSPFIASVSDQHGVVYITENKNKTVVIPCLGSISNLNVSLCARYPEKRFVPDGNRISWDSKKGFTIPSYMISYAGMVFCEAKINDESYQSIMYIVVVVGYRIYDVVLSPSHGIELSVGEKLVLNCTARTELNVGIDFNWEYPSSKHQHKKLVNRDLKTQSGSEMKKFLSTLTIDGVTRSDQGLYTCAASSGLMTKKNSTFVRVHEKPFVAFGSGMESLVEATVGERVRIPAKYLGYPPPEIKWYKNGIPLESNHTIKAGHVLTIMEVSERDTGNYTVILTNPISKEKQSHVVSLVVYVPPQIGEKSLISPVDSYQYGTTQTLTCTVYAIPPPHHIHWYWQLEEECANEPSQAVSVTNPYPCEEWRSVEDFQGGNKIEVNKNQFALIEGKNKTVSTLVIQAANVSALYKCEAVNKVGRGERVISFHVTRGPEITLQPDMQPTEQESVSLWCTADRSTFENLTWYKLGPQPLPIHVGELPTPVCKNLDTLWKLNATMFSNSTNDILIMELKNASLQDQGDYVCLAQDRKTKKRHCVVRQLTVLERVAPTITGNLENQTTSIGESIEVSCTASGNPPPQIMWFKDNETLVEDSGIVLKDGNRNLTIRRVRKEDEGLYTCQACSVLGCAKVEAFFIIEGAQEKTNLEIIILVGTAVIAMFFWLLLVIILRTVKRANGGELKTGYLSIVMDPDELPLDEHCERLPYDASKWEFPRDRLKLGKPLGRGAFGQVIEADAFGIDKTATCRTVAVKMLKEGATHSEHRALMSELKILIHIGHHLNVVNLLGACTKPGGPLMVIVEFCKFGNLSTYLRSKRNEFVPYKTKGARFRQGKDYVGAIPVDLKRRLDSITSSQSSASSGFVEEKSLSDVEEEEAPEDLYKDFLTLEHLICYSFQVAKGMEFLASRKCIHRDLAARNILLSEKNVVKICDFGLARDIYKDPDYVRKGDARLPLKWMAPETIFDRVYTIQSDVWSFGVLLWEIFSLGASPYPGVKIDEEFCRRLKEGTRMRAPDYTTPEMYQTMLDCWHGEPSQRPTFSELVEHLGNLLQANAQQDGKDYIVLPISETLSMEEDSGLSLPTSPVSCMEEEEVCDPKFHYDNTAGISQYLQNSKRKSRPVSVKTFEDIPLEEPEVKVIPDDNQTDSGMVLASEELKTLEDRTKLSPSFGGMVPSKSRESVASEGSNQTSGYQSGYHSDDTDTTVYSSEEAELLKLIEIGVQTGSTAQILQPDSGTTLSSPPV

SMILES | IC50 (FGFR2 V564F) | IC50 (FGFR3) | CL ([1]; p.o. 5 mg/kg) | Vz ([1]; p.o. 5 mg/kg) | F [1] | AUC(0-inf) ([1]; iv, i.v. 1 mg/kg) | AUC(0-t) ([1]; iv, i.v. 1 mg/kg) | Cmax ([1]; iv, i.v. 1 mg/kg) | Tmax ([1]; iv, i.v. 1 mg/kg) | clearance ([1]; iv, i.v. 1 mg/kg) | Vd ([1]; iv, i.v. 1 mg/kg) | AUC(0-inf) ([1]; po, p.o. 5 mg/kg) | AUC(0-t) ([1]; po, p.o. 5 mg/kg) | Cmax ([1]; po, p.o. 5 mg/kg) | Tmax ([1]; po, p.o. 5 mg/kg) | half-life ([1]; po, p.o. 5 mg/kg) | microsomal CLint at 1 µM [2] | half-life at 1 µM [2] | IC50 [3] | other results
[2H]C([2H])([2H])N1CCN(c2cc(-c3ccc(N4CC5CC(C4)N5Cc4ccc(OC)nc4)nc3)c3c(C#N)cnn3c2)CC1 [Compound 94] | 3.58 nM | 309 nM | 3567.58 mL/h/kg | 68492.14 mL/kg | 98.02% | 335 ng·h/mL | 240 ng·h/mL | 42.3 ng/mL | 0.08 h | 51.2 mL/min/kg | 57.6 L/kg | 1640 ng·h/mL | 1020 ng·h/mL | 63.9 ng/mL | 4 h | 946 min | 41.2 µL/min/mg | 33.6 min | 464 nM | Clearance time in rats compared with Loxo-292 ([1]; after oral administration): took longer to be cleared; Bioavailability compared with Loxo-292 ([1]; after oral administration, rats): higher bioavailability; half-life ([1]; iv, i.v. 1 mg/kg): 796 min; IC50 (RET wild type (RET WT)): 4.62 nM; IC50 (KDR (VEGFR2)): 169 nM
COc1ccc(CN2C3CC2CN(c2ccc(-c4cc(OCC(C)(C)O)cn5ncc(C#N)c45)cn2)C3)cn1 [Selpercatinib, selpercatinib, reference compound] | 12.9 nM | 349 nM | 456 mL/h/kg | 2039 mL/kg | 66.07% | 3330 ng·h/mL | 3310 ng·h/mL | 1260 ng/mL | 0.083 h | 5.1 mL/min/kg | 1.61 L/kg | 11000 ng·h/mL | 10900 ng·h/mL | 1040 ng/mL | 2.67 h | 187 min | 60.4 µL/min/mg | 22.9 min | > 1000 nM | IC50 (hERG potassium channel): 2750 nM

From patent US20230322769A1, “HETEROAROMATIC RING COMPOUND AS RET KINASE INHIBITOR, AND PREPARATION AND USE THEREOF” (JIANGSU CHIA TAI FENGHAI PHARMACEUTICAL CO., LTD., priority 2020, published 2023)
